Paper PMC12670426 (Journal of Medicinal Chemistry, 2025)
Read-outs that look alike come from different tables or passages of the source.

How the values were obtained:
[1] = target: T1, human galectin-3C (Gal-3C, C-terminal CRD of galectin-3) (Homo sapiens, UniProt P17931); assay: Competitive fluorescence polarization assay, Gal-3C; type: binding
T1 construct: only the C-terminal domain was used (Gal-3C); 6xHis tag with TEV protease site (N, cleaved yes); made in house; host or cells: BL21 Escherichia coli (pET-15b)
T1 sequence (P17931 118-248 limits assumed): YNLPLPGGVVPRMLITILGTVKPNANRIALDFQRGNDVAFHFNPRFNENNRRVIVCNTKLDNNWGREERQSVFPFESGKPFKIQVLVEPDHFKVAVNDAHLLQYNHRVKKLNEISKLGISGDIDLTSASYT
Protocol: (§1) Our investigation of the structure–activity relationship of N-aryl-N-lactosylamides started with an initial screening of substituted acetanilides (Table ). These compounds can be readily synthesized from a wide range of commercially available substituted anilines. Affinity was evaluated using a fluorescence polarization assay, which enables reliable determination of dissociation constants (K d) between small molecules and galectins. All inhibitors in this series were tested against the two most common human galectins: Gal-1 and Gal-3. Gal-1 is a prototype galectin consisting of a single CRD and was used in full length. In the case of Gal-3, which consists of the C-terminal CRD and N-terminal unfolded region, only the C-terminal domain was used (Gal-3C). Affinities were compared to methyl β-lactoside (β-LacOMe) as a baseline.
(§2) Fluorescence polarization experiments for determining inhibitor affinities were performed using the same instrumentation and settings as described for the direct binding experiments. […] The galectin–probe mixture was subsequently added using a Certus Flex liquid handler (Fritz Gyger AG, Switzerland) to reach a final volume of 5 μL. Anisotropy was measured after 30–60 min incubation at 25 °C. Inhibitor dissociation constants (K d) were calculated using Wang’s exact cubic model for competitive binding implemented in the BindCurve package. Protein and probe concentrations used in these competitive experiments are provided in the Supporting Information.
(§3) Competitive binding was modeled by Wang’s exact cubic model,3 which is written as […]
(§4) r = rmin + (rmax − rmin) 3 (6) […]
(§5) where r, rmin and rmax have the same meaning as in Equation 1. The coefficients a, b, and c are […]
(§6) a = Kd∗ + Kd + [L∗]T + [L]T − [R]T (7) b = Kd∗([L]T − [R]T) + Kd([L∗]T − [R]T) + Kd∗ Kd (8) […]
(§7) where Kd∗ is the dissociation constant of the probe, Kd is the dissociation constant of the […]
(§8) the unlabeled ligand, and [R]T is the total concentration of the receptor. The angle θ is defined […]
(§9) In the competitive binding experiments, the values of [L∗]T, [R]T and Kd∗ are known and [L]T is titrated. The values of minimal and maximal anisotropy rmin and rmax were fixed during fitting at the values of the minimal and maximal asymptotes obtained from the direct binding experiments. The value of Kd was calculated as the only unfixed parameter in the model.
(§10) Experimental constants used for the competitive fluorescence polarization experiments are […]
(§11) Table S2. Experimental constants used for competitive fluorescence polarization experiments. […]

[2] = target: T2, human galectin-1 (Gal-1, full length) (Homo sapiens, UniProt P09382); assay: Competitive fluorescence polarization assay, Gal-1; type: binding
T2 construct: Gal-1 is a prototype galectin consisting of a single CRD and was used in full length; 6xHis tag with TEV protease site (N, cleaved yes); made in house; host or cells: BL21 Escherichia coli (pET-15b)
T2 sequence (P09382 2-135): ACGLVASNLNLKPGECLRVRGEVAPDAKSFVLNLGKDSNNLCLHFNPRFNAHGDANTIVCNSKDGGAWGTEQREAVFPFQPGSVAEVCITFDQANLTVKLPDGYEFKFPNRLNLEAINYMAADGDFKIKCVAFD
Protocol: as §1, §2, §3, §4, §5, §6, §7, §8, §9, §10, §11

[3] = CSV supplement, unrounded mean, read-out: Gal3C_IC50_mean_uM
[4] = CSV supplement, unrounded mean, read-out: Gal3C_Kd_mean_uM
[5] = competitive fluorescence polarization, mean ± SD, read-out: Kd Gal-3C
[6] = four-parameter logistic model, mean ± SD, read-out: IC50 Gal-3C
[7] = CSV supplement, unrounded mean, read-out: Gal1_IC50_mean_uM
[8] = CSV supplement, unrounded mean, read-out: Gal1_Kd_mean_uM
[9] = competitive fluorescence polarization, mean ± SD, read-out: Kd Gal-1
[10] = four-parameter logistic model, mean ± SD, read-out: IC50 Gal-1

Compound | IC50 [1, 3] [µM] | Kd [1, 4] [µM] | improvement in affinity toward Gal-3C compared to β-LacOMe ([1]; compared to β-LacOMe) | Kd [1, 5] [µM] | IC50 [1, 6] [µM] | IC50 [2, 7] [µM] | Kd [2, 8] [µM] | improvement in affinity toward Gal-1 compared to β-LacOMe ([2]; compared to β-LacOMe) | Kd [2, 9] [µM] | IC50 [2, 10] [µM]
CC(=O)N(c1ccccc1)[C@@H]1O[C@H](CO)[C@@H](O[C@@H]2O[C@H](CO)[C@H](O)[C@H](O)[C@H]2O)[C@H](O)[C@H]1O [Compound 3a, N-[4-O-(β-D-Galactopyranosyl)-β-D-glucopyranosyl]-N-phenylacetamide] | 287 | 106 | approximately 2 fold | 110 ± 30 | 290 ± 1 | 908 | 586 | approximately 2 fold | 590 ± 80 | 910 ± 20
CC(=O)N(c1cccc(-c2cn(C)nn2)c1)[C@@H]1O[C@H](CO)[C@@H](O[C@@H]2O[C@H](CO)[C@H](O)[C@H](O)[C@H]2O)[C@H](O)[C@H]1O [Compound 3aa, N-[4-O-(β-D-Galactopyranosyl)-β-D-glucopyranosyl]-N-[3-(1-methyl-1H-1,2,3-triazol-4-yl)phenyl]acetamide] | 191 | 68.7 |  | 69 ± 20 | 190 ± 9 | 899 | 571 |  | 570 ± 60 | 900 ± 100
CC(=O)N(c1cc(Cl)cc(C(=O)O)c1)[C@@H]1O[C@H](CO)[C@@H](O[C@@H]2O[C@H](CO)[C@H](O)[C@H](O)[C@H]2O)[C@H](O)[C@H]1O [Compound 3ab, N-[4-O-(β-D-Galactopyranosyl)-β-D-glucopyranosyl]-N-(3-carboxy-5-chlorophenyl)acetamide] | 130 | 50 |  | 50 ± 9 | 130 ± 3 | 957 | 651 |  | 650 ± 100 | 960 ± 40
CC(=O)N(c1cc(Br)cc(C(=O)O)c1)[C@@H]1O[C@H](CO)[C@@H](O[C@@H]2O[C@H](CO)[C@H](O)[C@H](O)[C@H]2O)[C@H](O)[C@H]1O [Compound 3ac, N-[4-O-(β-D-Galactopyranosyl)-β-D-glucopyranosyl]-N-(3-bromo-5-carboxyphenyl)acetamide] | 160 | 60.2 |  | 60 ± 10 | 160 ± 20 | 967 | 625 |  | 630 ± 100 | 970 ± 30
COC(=O)c1cc(N(C(C)=O)[C@@H]2O[C@H](CO)[C@@H](O[C@@H]3O[C@H](CO)[C@H](O)[C@H](O)[C@H]3O)[C@H](O)[C@H]2O)c2cc[nH]c2c1 [Compound 3ae, N-[4-O-(β-D-Galactopyranosyl)-β-D-glucopyranosyl]-N-[6-(methylcarboxy)-1H-indol-4-yl]acetamide] | 42.5 | 15.9 |  | 16 ± 2 | 43 ± 4 | 1030 | 637 |  | 640 ± 90 | 1000 ± 100
CC(=O)N(c1ccc(C)cc1)[C@@H]1O[C@H](CO)[C@@H](O[C@@H]2O[C@H](CO)[C@H](O)[C@H](O)[C@H]2O)[C@H](O)[C@H]1O [Compound 3b, N-[4-O-(β-D-Galactopyranosyl)-β-D-glucopyranosyl]-N-(4-methylphenyl)acetamide] | 404 | 133 |  | 130 ± 20 | 400 ± 50 | 919 | 481 |  | 480 ± 100 | 920 ± 90
C#Cc1cccc(N(C(C)=O)[C@@H]2O[C@H](CO)[C@@H](O[C@@H]3O[C@H](CO)[C@H](O)[C@H](O)[C@H]3O)[C@H](O)[C@H]2O)c1 [Compound 3c, N-[4-O-(β-D-Galactopyranosyl)-β-D-glucopyranosyl]-N-(3-ethynylphenyl)acetamide] | 500 | 182 |  | 180 ± 50 | 500 ± 30 | 1570 | 1010 |  | 1000 ± 70 | 1600 ± 300
CC(=O)N(c1cccc(C(F)(F)F)c1)[C@@H]1O[C@H](CO)[C@@H](O[C@@H]2O[C@H](CO)[C@H](O)[C@H](O)[C@H]2O)[C@H](O)[C@H]1O [Compound 3d, N-[4-O-(β-D-Galactopyranosyl)-β-D-glucopyranosyl]-N-(3-trifluoromethylphenyl)acetamide] | 489 | 160 |  | 160 ± 30 | 490 ± 60 | 1040 | 560 |  | 560 ± 100 | 1000 ± 90
CC(=O)N(c1ccc(F)cc1)[C@@H]1O[C@H](CO)[C@@H](O[C@@H]2O[C@H](CO)[C@H](O)[C@H](O)[C@H]2O)[C@H](O)[C@H]1O [Compound 3e, N-[4-O-(β-D-Galactopyranosyl)-β-D-glucopyranosyl]-N-(4-fluorophenyl)acetamide] | 275 | 87.1 |  | 87 ± 10 | 270 ± 10 | 595 | 322 |  | 320 ± 100 | 590 ± 70
CC(=O)N(c1cccc(F)c1)[C@@H]1O[C@H](CO)[C@@H](O[C@@H]2O[C@H](CO)[C@H](O)[C@H](O)[C@H]2O)[C@H](O)[C@H]1O [Compound 3f, N-[4-O-(β-D-Galactopyranosyl)-β-D-glucopyranosyl]-N-(3-fluorophenyl)acetamide] | 305 | 98.1 |  | 98 ± 3 | 300 ± 50 | 671 | 361 |  | 360 ± 20 | 670 ± 30
CC(=O)N(c1ccccc1F)[C@@H]1O[C@H](CO)[C@@H](O[C@@H]2O[C@H](CO)[C@H](O)[C@H](O)[C@H]2O)[C@H](O)[C@H]1O [Compound 3g, N-[4-O-(β-D-Galactopyranosyl)-β-D-glucopyranosyl]-N-(2-fluorophenyl)acetamide] | 282 | 93.2 |  | 93 ± 20 | 280 ± 20 | 931 | 507 |  | 510 ± 30 | 930 ± 8
CC(=O)N(c1ccc(F)c(F)c1)[C@@H]1O[C@H](CO)[C@@H](O[C@@H]2O[C@H](CO)[C@H](O)[C@H](O)[C@H]2O)[C@H](O)[C@H]1O [Compound 3h, N-[4-O-(β-D-Galactopyranosyl)-β-D-glucopyranosyl]-N-(3,4-difluorophenyl)acetamide] | 284 | 127 |  | 130 ± 80 | 280 ± 100 | 597 | 399 |  | 400 ± 20 | 600 ± 20
CC(=O)N(c1cc(F)c(F)c(F)c1)[C@@H]1O[C@H](CO)[C@@H](O[C@@H]2O[C@H](CO)[C@H](O)[C@H](O)[C@H]2O)[C@H](O)[C@H]1O [Compound 3i, N-[4-O-(β-D-Galactopyranosyl)-β-D-glucopyranosyl]-N-(3,4,5-trifluorophenyl)acetamide] | 328 | 111 |  | 110 ± 8 | 330 ± 5 | 565 | 314 |  | 310 ± 90 | 570 ± 10
CC(=O)N(c1ccc(Cl)cc1)[C@@H]1O[C@H](CO)[C@@H](O[C@@H]2O[C@H](CO)[C@H](O)[C@H](O)[C@H]2O)[C@H](O)[C@H]1O [Compound 3j, N-[4-O-(β-D-Galactopyranosyl)-β-D-glucopyranosyl]-N-(4-chlorophenyl)acetamide] | 363 | 113 |  | 110 ± 10 | 360 ± 10 | 654 | 363 |  | 360 ± 30 | 650 ± 30
CC(=O)N(c1ccc(Cl)c(Cl)c1)[C@@H]1O[C@H](CO)[C@@H](O[C@@H]2O[C@H](CO)[C@H](O)[C@H](O)[C@H]2O)[C@H](O)[C@H]1O [Compound 3k, N-[4-O-(β-D-Galactopyranosyl)-β-D-glucopyranosyl]-N-(3,4-dichlorophenyl)acetamide] | 346 | 112 |  | 110 ± 20 | 350 ± 40 | 659 | 376 |  | 380 ± 60 | 660 ± 8
